Earlier results in US20100137844A1, “Delivery devices for modulating inflammation” (Searete LLC, a limited liability corporation of the State …, priority 2008, published 2010).

Tests used:
[1] = 400 mg infused over one hour, single agent
[2] = tested on: proteasomal activity in cultured breast cancer cells; conditions: via copper binding
[3] = tested on: aldehyde dehydrogenase
[4] = target: Fyn (Homo sapiens, UniProt P06241); conditions: at nanomolar concentrations
[5] = tested on: mice

Chain of Fyn (P06241 whole entry): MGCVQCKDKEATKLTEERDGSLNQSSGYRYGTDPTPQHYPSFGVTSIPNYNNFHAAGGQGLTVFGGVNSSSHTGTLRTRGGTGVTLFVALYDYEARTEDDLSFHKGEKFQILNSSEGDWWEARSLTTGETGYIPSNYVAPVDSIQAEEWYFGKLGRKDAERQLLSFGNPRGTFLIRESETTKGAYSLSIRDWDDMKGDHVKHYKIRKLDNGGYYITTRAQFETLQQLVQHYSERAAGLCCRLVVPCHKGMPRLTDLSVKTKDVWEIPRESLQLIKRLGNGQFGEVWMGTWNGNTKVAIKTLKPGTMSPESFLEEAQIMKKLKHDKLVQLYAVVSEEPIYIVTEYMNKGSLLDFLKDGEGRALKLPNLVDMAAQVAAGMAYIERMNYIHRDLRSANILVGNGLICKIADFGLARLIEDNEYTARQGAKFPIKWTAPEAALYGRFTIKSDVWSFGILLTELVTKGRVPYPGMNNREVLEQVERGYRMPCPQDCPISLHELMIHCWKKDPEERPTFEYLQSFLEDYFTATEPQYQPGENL

CCN(CC)CCCC(C)Nc1ccnc2cc(Cl)ccc12.O=P(O)(O)O.O=P(O)(O)O (centres unmarked) [chloroquine phosphate, 7-chloro-4-[[4-(diethylamino)-1-methylbutyl]amino]quinoline phosphate (1:2)]
tolerability of intravenous infusion [1]: without complication

CCN(CC)C(=S)SSC(=S)N(CC)CC [disulfiram, 1-(diethylthiocarbamoyldisulfanyl)-N,N-diethyl-methanethioamide]
proteasomal activity [2]: inhibits proteasomal activity | inhibition of aldehyde dehydrogenase [3]: inhibits aldehyde dehydrogenase without toxicity

Cc1nc(Nc2ncc(C(=O)Nc3c(C)cccc3Cl)s2)cc(N2CCN(CCO)CC2)n1.O [dasatinib, N-(2-chloro-6-methylphenyl)-2-[[6-[4-(2-hydroxyethyl)-1-piperazinyl]-2-methyl-4-pyrimidinyl]amino]-5-thiazolecarboxamide, monohydrate]
inhibition of Fyn [4]: inhibits

Cl.Cl.Nc1ccccc1Oc1ccc2c(N)nsc2c1 [Example M62812, 3-amino-6-(2-aminophenoxy)-1,2-benzisothiazole dihydrochloride]
prevention of lethal septic shock [5]: prevents lethal septic shock in mice
